In one assay the target is T1, human 5-HT2C receptor (Homo sapiens, UniProt P28335).
T1 sequence (P28335 33-458): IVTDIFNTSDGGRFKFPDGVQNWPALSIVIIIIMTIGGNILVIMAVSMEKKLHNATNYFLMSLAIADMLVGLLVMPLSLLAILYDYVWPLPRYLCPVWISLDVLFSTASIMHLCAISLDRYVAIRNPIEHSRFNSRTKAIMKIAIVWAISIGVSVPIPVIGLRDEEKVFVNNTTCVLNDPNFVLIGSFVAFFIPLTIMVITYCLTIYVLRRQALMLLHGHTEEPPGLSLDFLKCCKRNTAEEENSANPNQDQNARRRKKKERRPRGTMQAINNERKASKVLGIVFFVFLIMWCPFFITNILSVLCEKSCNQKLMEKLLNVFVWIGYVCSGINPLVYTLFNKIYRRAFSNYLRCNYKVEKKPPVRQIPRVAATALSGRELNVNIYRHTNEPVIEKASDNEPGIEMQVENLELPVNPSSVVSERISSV
The assay is described as follows: 5-HT2C receptor-stimulated calcium mobilization (FLIPR) in CHO cells.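 For all read-outs here: Fluo-3-AM fluorescence read on FLIPR every 1 s, agonist added after 10 baseline reads, response taken as peak minus lowest raw fluorescence count.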 It is filed as cell-based. Conditions: for Emax: CHO, read-out: 5-HT2C Function Emax (%); for Emax / 5-HT2C Function Emax (%): percentage of the response observed with a maximally effective concentration of 5-HT; for EC50: calcium mobilization, CHO cells stably expressing human 5-HT2C, read-out: 5-HT2C Function EC50.

Assay [1] concerns the target T2, human 5-hydroxytryptamine-2C (h5-HT2C) receptor (Homo sapiens, UniProt P28335).
T2 construct: expressed in transfected cells; host or cells: CHO (Chinese Hamster Ovary) cells; membranes
T2 sequence (P28335 33-458): T1 sequence (P28335 33-458)
The assay is described as follows: [125I]DOI binding to membranes of CHO cells expressing the human 5-HT2C receptor. Conditions: [125I]DOI radioligand, CHO cell membranes, room temperature 60 min; read-out: 5-HT2C Affinity Ki.

Take `Cc1cccc(C)c1-c1cccc2c1CC(CN)O2` (single isomer, unassigned; (+)) [Example 126, (+)-1-[4-(2,6-dimethylphenyl)-2,3-dihydro-1-benzofuran-2-yl]methanamine]: at human 5-HT2C receptor, the Emax was 40% and the EC50 came to 2720 nM. In assay [1], the Ki turned out to be 17 nM.

Turning to `COc1cc2c(c(-c3ccccc3OC)c1)OC(CCN)C2` (racemic) [Example 554, (±)-{2-[7-(2-methoxyphenyl)-5-methoxy-2,3-dihydro-1-benzofuran-2-yl]ethyl}amine], at human 5-HT2C receptor, the Emax is 70% and the EC50 stood at 2 nM. The inhibition constant Ki in assay [1] came out at 41 nM.

As to `CNCC1Cc2cc(OC)cc(-c3cc(OC)ccc3OC)c2O1` (racemic) [Example 501, (±)-{[7-(2,5-dimethoxyphenyl)-5-methoxy-2,3-dihydro-1-benzofuran-2-yl]methyl}methylamine], at human 5-HT2C receptor, the Emax worked out at 70% and the EC50 stood at 70 nM. In assay [1], the Ki was 45 nM.

For the compound `NCC1Cc2cccc(-c3c(F)cccc3F)c2O1` (racemic) [Example 139, (±)-1-[7-(2,6-difluorophenyl)-2,3-dihydro-1-benzofuran-2-yl]methanamine], at human 5-HT2C receptor, the Emax was 90% and the EC50 is 6 nM. In assay [1], the Ki stood at 2.5 nM.

Take `CNCC1Cc2cc(C(F)(F)F)cc(-c3ccc(OC)cc3OC)c2O1` (racemic) [Example 526, (±)-N-methyl-1-[7-(2,4-dimethoxyphenyl)-5-(trifluoromethyl)-2,3-dihydro-1-benzofuran-2-yl]methanamine]: at human 5-HT2C receptor, the Emax is 90% and the EC50 is 50 nM. For the same compound, the Ki in assay [1] was determined as 25 nM.

As for `Cc1ccccc1-c1cccc2c1CC(CN)O2` (racemic) [Example 4, (±)-1-[4-(2-methylphenyl)-2,3-dihydro-1-benzofuran-2-yl]methanamine], on human 5-HT2C receptor, the Emax was 100% and the EC50 worked out at 562 nM. Further, the Ki in assay [1] came to 26 nM.

`NCC1Cc2cc(F)cc(-c3ccccc3Cl)c2O1` (single isomer, unassigned; (+)) [Example 101, (+)-1-[7-(2-chlorophenyl)-5-fluoro-2,3-dihydro-1-benzofuran-2-yl]methanamine]: on human 5-HT2C receptor, the concentration giving a half-maximal response (EC50) is 0.32 nM and the “5-HT2C Function Emax (%)” value came out at 100%. Besides, the Ki in assay [1] came to 0.2 nM.

Consider `Cc1ccc(-c2cccc3c2OC(CN)C3)cc1` (racemic) [Example 70, (±)-1-[7-(4-methylphenyl)-2,3-dihydro-1-benzofuran-2-yl]methanamine], for which, on human 5-HT2C receptor, the Emax was 100% and the EC50 was found to be 22 nM. The Ki in assay [1] came out at 2 nM.

Consider `Cc1cc(Cl)ccc1-c1cccc2c1OC(CN)C2` (racemic) [Example 167, (±)-{[7-(4-chloro-2-methylphenyl)-2,3-dihydro-1-benzofuran-2-yl]methyl}amine], for which, at human 5-HT2C receptor, the Emax amounted to 90% and the EC50 amounted to 21 nM. Also, the Ki in assay [1] came out at 3.1 nM.

Regarding `Cc1ccc(-c2cc(F)cc3c2OC(CN)C3)cc1` (racemic) [Example 201, (±)-{[5-fluoro-7-(4-methylphenyl)-2,3-dihydro-1-benzofuran-2-yl]methyl}amine], on human 5-HT2C receptor, the Emax was 80% and the EC50 was 396 nM. In addition, the Ki in assay [1] is 8 nM.

Take `NCC1Cc2cc(C(F)(F)F)cc(-c3cc(Cl)ccc3Cl)c2O1` (racemic) [Example 337, (±)-{[7-(2,5-dichlorophenyl)-5-(trifluoromethyl)-2,3-dihydro-1-benzofuran-2-yl]methyl}amine]: on human 5-HT2C receptor, the Emax is 90% and the 50% effective concentration (EC50) came out at 48 nM. Also, the Ki in assay [1] is 34 nM.

`COc1cc2c(c(-c3cc(Cl)ccc3Cl)c1)OC(CN)C2` (single isomer, unassigned; (+)) [Example 368, (+)-{[7-(2,5-dichlorophenyl)-5-methoxy-2,3-dihydro-1-benzofuran-2-yl]methyl}amine]: at human 5-HT2C receptor, the Emax turned out to be 90% and the EC50 was 4 nM. Also, the Ki in assay [1] amounted to 1.4 nM.

For `Cc1ccccc1-c1cc(C(C)C)cc2c1OC(CN)C2` (racemic) [Example 307, (±)-{[5-isopropyl-7-(2-methylphenyl)-2,3-dihydro-1-benzofuran-2-yl]methyl}amine], on human 5-HT2C receptor, the Emax was 90% and the half-maximal effective concentration (EC50) turned out to be 49 nM. Further, the inhibition constant (Ki) in assay [1] was 1 nM.

For the compound `NCC1Cc2cc(F)cc(-c3ccc(F)cc3F)c2O1` (racemic) [Example 215, (±)-{[7-(2,4-difluorophenyl)-5-fluoro-2,3-dihydro-1-benzofuran-2-yl]methyl}amine], on human 5-HT2C receptor, the Emax was determined as 80% and the EC50 came out at 80 nM. Besides, the Ki in assay [1] came out at 5 nM.

On to `NCC1Cc2cc(F)cc(-c3c(Cl)cccc3Cl)c2O1` (single isomer, unassigned; (+)) [Example 551, (+)-{[7-(2,6 dichlorophenyl)-5-fluoro-2,3-dihydro-1-benzofuran-2-yl]methyl}amine], for which, at human 5-HT2C receptor, the maximum response (Emax) worked out at 90% and the EC50 was 17 nM. Also, the Ki in assay [1] came out at 0.55 nM.

In the case of `Cc1cc2c(c(-c3ccc(Cl)cc3Cl)c1)OC(CN)C2` (racemic) [Example 297, (±)-{[7-(2,4-dichlorophenyl)-5-methyl-2,3-dihydro-1-benzofuran-2-yl]methyl}amine], on human 5-HT2C receptor, the Emax amounted to 100% and the EC50 is 0.73 nM. Besides, in assay [1], the Ki is 0.56 nM.

Turning to `NCC1Cc2cc(Cl)cc(-c3ccc(Cl)cc3Cl)c2O1` (racemic) [Example 251, (±)-{[5-chloro-7-(2,4-dichlorophenyl)-2,3-dihydro-1-benzofuran-2-yl]methyl}amine], at human 5-HT2C receptor, the Emax was found to be 90% and the EC50 came to 8 nM. In assay [1], the inhibitory constant (Ki) was found to be 0.38 nM.

On to `NCC1Cc2c(F)c(F)cc(-c3ccccc3)c2O1` (racemic) [Example 109, (±)-(4,5-difluoro-7-phenyl-2,3-dihydro-1-benzofuran-2-yl)methylamine], for which, on human 5-HT2C receptor, the Emax came out at 40% and the EC50 worked out at 3220 nM. The Ki in assay [1] was 25 nM.

As to `Cc1cc2c(c(-c3ccccc3)c1)OC(CN)C2` (racemic) [Example 281, (±)-{[(5-methyl-7-phenyl-2,3-dihydro-1-benzofuran-2-yl)methyl]amine], on human 5-HT2C receptor, the Emax came to 90% and the concentration for a half-maximal effect (EC50) came to 35 nM. Besides, in assay [1], the Ki is 3.8 nM.

Consider `Cc1ccccc1-c1cccc2c1OC(CN)C2` (racemic) [Example 47, (±)-1-[7-(2-methylphenyl)-2,3-dihydro-1-benzofuran-2-yl]methanamine], for which, at human 5-HT2C receptor, the Emax is 100% and the EC50 amounted to 5.4 nM. For the same compound, the Ki in assay [1] turned out to be 0.4 nM.

Turning to `NCC1Cc2cccc(C3CCCC3)c2O1` (single isomer, unassigned; (-)) [Example 9, (−)-(7-cyclopentyl-2,3-dihydro-1-benzofuran-2-yl)methylamine], at human 5-HT2C receptor, the EC50 stood at 194 nM and the “5-HT2C Function Emax (%)” value is listed as 85%. For the same compound, the Ki in assay [1] was 10 nM.

Regarding `CC(C)c1ccccc1-c1cccc2c1OC(CN)C2` (racemic) [Example 61, (±)-[7-(2-isopropylphenyl)-2,3-dihydro-1-benzofuran-2-yl]methylamine], at human 5-HT2C receptor, the Emax is 30% and the concentration for a half-maximal effect (EC50) stood at 1090 nM. For the same compound, the Ki in assay [1] stood at 37 nM.

As for `NCC1Cc2cc(F)cc(-c3ccccc3F)c2O1` (racemic) [Example 107, (±)-1-[5-fluoro-7-(2-fluorophenyl)-2,3-dihydro-1-benzofuran-2-yl]methanamine], on human 5-HT2C receptor, the Emax stood at 100% and the EC50 worked out at 93 nM. Moreover, the Ki in assay [1] worked out at 1 nM.

With `NCC1Cc2cc(Cl)cc(-c3c(Cl)cccc3Cl)c2O1` (racemic) [Example 263, (±)-{[5-chloro-7-(2,6-dichlorophenyl)-2,3-dihydro-1-benzofuran-2-yl]methyl}amine], at human 5-HT2C receptor, the Emax worked out at 100% and the EC50 is 0.8 nM. Also, the Ki in assay [1] is 1.8 nM.

For `NCC1Cc2cc(Cl)cc(-c3cccnc3)c2O1` (racemic) [Example 266, (±)-{[(5-chloro-7-pyridin-3-yl-2,3-dihydro-1-benzofuran-2-yl)methyl]amine], at human 5-HT2C receptor, the Emax stood at 90% and the EC50 stood at 3 nM. Besides, in assay [1], the Ki is 4.9 nM.

As to `COc1ccc(-c2cccc3c2OC(CN)C3)c(OC)c1` (single isomer, unassigned; (-)) [Example 144, (−)-1-[7-(2,4-dimethoxyphenyl)-2,3-dihydro-1-benzofuran-2-yl]methanamine], at human 5-HT2C receptor, the Emax is 90% and the EC50 stood at 4 nM. The Ki in assay [1] is 6.1 nM.

With `COc1ccccc1-c1cc(C)cc2c1OC(CN)C2` (racemic) [Example 284, (±)-{[7-(2-methoxyphenyl)-5-methyl-2,3-dihydro-1-benzofuran-2-yl]methyl}amine], at human 5-HT2C receptor, the Emax is 100% and the EC50 was determined as 7 nM. Besides, the Ki in assay [1] came out at 0.8 nM.

As for `NCC1Cc2cc(Cl)cc(-c3cc(F)ccc3F)c2O1` (racemic) [Example 255, (±)-{[5-chloro-7-(2,5-difluorophenyl)-2,3-dihydro-1-benzofuran-2-yl]methyl}amine], on human 5-HT2C receptor, the Emax is 90% and the EC50 stood at 79 nM. Moreover, in assay [1], the Ki amounted to 5 nM.

In general, Emax refers to the size of the effect at its maximum, as opposed to the concentration needed. A word on the EC50: it is the concentration giving half of the maximal effect. The term Ki denotes a dissociation constant, usually derived from enzyme kinetics or from competition with a known ligand.

Values taken from patent US7435837B2, “Dihydrobenzofuranyl alkanamine derivatives and methods for using same” (Wyeth, priority 2003, dated 2008).
